From patent publication US8609711B2, “Crystalline N-{(1S)-2-amino-1-[(3-fluorophenyl)methyl]ethyl}-5-chloro-4-(4-chloro-1-methyl-1H-pyrazol-5-yl)-2-thiophenecarboxamic hydrochloride” (GlaxoSmithKline LLC, priority 2009, dated 2013)
“Also recorded” adds a separate entry of the source.

Assay: Hygroscopicity, VTI instrument SGA 100
Conditions: for weight increase (moisture): 25 °C; for hygroscopicity (in words): hydrochloride
Source text: There were 24 Relative Humidity steps used. The Relative Humidity at each step is as follows.

| weight increase (moisture) (no drying, 24 relative humidity steps between 5 and 90, max equilibrium time 240 min) | weight increase (moisture) (drying at 60 °C, 19 relative humidity steps between 0 and 90, max equilibrium time 300 min) | SMILES | hygroscopicity (in words) |
| --- | --- | --- | --- |
| less than 1 % w/w | – | Cl.Cn1ncc(Cl)c1-c1cc(C(=O)N[C@H](CN)Cc2cccc(F)c2)sc1Cl [Compound A] | non-hygroscopic; also recorded: low level of hygroscopicity |
| – | more than 18 % w/w | Cl.Cn1ncc(Cl)c1-c1cc(C(=O)N[C@H](CN)Cc2cccc(F)c2)sc1Cl [Example 3] | hygroscopic; also recorded: high level of hygroscopicity |
